# Literature values in patent publication US20080070828A1, “Ace-Inhibitory Whey Hydrolysates” (FRIESLAND BRANDS B.V., priority 2004, published 2008).
# Assays:
# [1] = system: ACE; conditions: for Literature IC50 / IC50: ACE-inhibitory peptides from BLG; for IC50: read-out: Literature IC50
# [2] = system: hypertensive rats; conditions: among 9 identified peptide sequences
Literature IC50 [1] [µg/mL],IC50 [1] [µM],"IC50 reported in WO 01/85984 ([1]; single hydrolysis step with trypsin or bacterial protease, f142-148 as reference) [µg/mL]",Substance,antihypertensive activity [2]
42,141,,"Ile-Pro-Ala [f(78-80), BLG tripeptide]",strongest antihypertensive activity
390,580,,"f(9-14): ACE-inhibitory peptide from BLG (GLDIQK; UniProt P02754 25-30, looked up, fragment)",
1170,1680,,"f(15-20): ACE-inhibitory peptide from BLG (VAGTWY; UniProt P02754 31-36, looked up, fragment)",
430,1060,,"f(22-25): ACE-inhibitory peptide from BLG (LAMA; UniProt P02754 38-41, looked up, fragment)",
616,635,,"f(32-40): ACE-inhibitory peptide from BLG (LDAQSAPLR; UniProt P02754 48-56, looked up, fragment)",
404,1030,,"f(81-83): ACE-inhibitory peptide from BLG (VFK; UniProt P02754 97-99, looked up, fragment)",
807,946,,"f(94-100): ACE-inhibitory peptide from BLG (VLDTDYK; UniProt P02754 110-116, looked up, fragment)",
95,172,,"f(102-105): ACE-inhibitory peptide from BLG (YLLF; UniProt P02754 118-121, looked up, fragment)",
515,788,,"f(106-111): ACE-inhibitory peptide from BLG (CMENSA; UniProt P02754 122-127, looked up, fragment)",
296,521,,"f(142-146): ACE-inhibitory peptide from BLG (ALPMH; UniProt P02754 158-162, looked up, fragment)",
,43,40,"f(142-148): peptide isolated from a trypsin hydrolysate of bovine BLG (ALPMHIR; UniProt P02754 158-164, looked up, fragment)",
620,1150,,"f(146-149): ACE-inhibitory peptide from BLG (HIRL; UniProt P02754 162-165, looked up, fragment)",
